Results as given in patent US20140350273A1, “PEDIATRIC USES OF CABAZITAXEL” (AVENTIS PHARMA S.A., priority 2012, published 2014).
Read-outs that look alike come from different tables or passages of the source.

Test system: human osteosarcoma DM77
Assay type: in vivo
Conditions: for Tumor Volume Data (Day 21) Median / ΔT/ΔC % / ΔT/ΔC: day 21; for MTTE / T-C: volume endpoint 1400 mm^3
Protocol: In the reported examples supporting this invention, vials of the clinical formulation of cabazitaxel and docetaxel were used. […] The resultant solution contains 10 mg/mL of cabazitaxel. Stock solution of cabazitaxel was then diluted in 0.9% sodium chloride.
This efficacy may be quantified, for example, as changes in tumor volume for each treated (T) and control (C) group, which are calculated for each animal and each day by subtracting the tumor volume on the day of first treatment (staging day) from the tumor volume on the specified observation day. This allows calculating the tumor growth inhibition: ΔT/ΔC=(median delta T/median delta C)×100. Individual tumor volume changes from baseline are thereafter analyzed by a non-parametric two-way ANOVA-TYPE (with factors: group and repeated days) followed by a post-hoc contrasts analysis, with Bonferroni-Holm adjustment for multiplicity, comparing all treated groups to the control group. […] A probability less than 5% (p<0.05) was considered as significant.
Based on the National Cancer Institute (NCl) standards, a ΔT/ΔC≦40% is the minimal level required to declare activity.
This efficacy may also be quantified by the number of tumor regressions observed after therapy. Individual mice reporting a tumor volume ≦50% of the Day 0 measurement for two consecutive measurements over a seven day period were considered partial responders (PR). Individual mice lacking palpable tumors (<4×4 mm^2 for two consecutive measurements over a seven day period) were classified as complete responders (CR); a CR that persisted until study completion was considered a tumor-free survivor (TFS).
Efficacy could also be determined at study completion, using tumor growth delay (T-C) in days, which is calculated using the median time to endpoint (MTTE) value for each treatment (T) group versus control (C). A Log Rank multiple comparison test with Bonferroni-Holm adjustment for multiplicity was applied on individual TTE to compare the treated groups to the control group.
The efficacy of cabazitaxel in comparison with docetaxel on pediatric patient-derived tumor xenografts was determined experimentally in the following manner:
The animals subjected to the experiment are subcutaneously grafted unilaterally with approximately 30 mg of a tumor fragment from low passage pediatric patient-derived tumor xenografts. The animals are implanted with a human patient-derived pediatric tumor xenografted in immuno-compromised mice (Harlan; nu/nu). Several days post tumor implantation, mice are randomized according to their tumor burden to the different groups of treatments and controls. The agents are dosed intravenously at 5.8, 9.3, 15 or 24.2 mg/kg every 4 days for a total of 3 doses (q4d×3) to mice bearing a tumor burden at start of therapy (day 0) ranged from 125 to 250 mm^3.
Beginning Day 0, animals were observed daily and weighed twice weekly using a digital scale; data including individual and mean gram weights (Mean We±SD), mean percent weight change versus Day 0 were recorded for each group. Animal deaths were recorded daily and designated as drug-related (D), technical (T), tumor related (B), or unknown (U) based on weight loss and gross observation; single agent or combination groups reporting a mean >20% for a period of 7 days and/or >10% mortality were considered above the maximum tolerated dose (MTD) for that treatment on the evaluated regimen.
The selected tumor model, DM77, was a low passage patient-derived tumor xenograft derived from an osteosarcoma taken from the lung of a patient. […]

## CO[C@H]1C(=O)[C@]2(C)[C@@H](OC)C[C@H]3OC[C@@]3(OC(C)=O)[C@H]2[C@H](OC(=O)c2ccccc2)[C@]2(O)C[C@H](OC(=O)[C@H](O)[C@@H](NC(=O)OC(C)(C)C)c3ccccc3)C(C)=C1C2(C)C [Cabazitaxel, 4α-acetoxy-2α-benzoyloxy-5β,20-epoxy-1β-hydroxy-7β,10β-dimethoxy-9-oxo-11-taxen-13α-yl (2R,3S)-3-tert-butoxycarbonyl-amino-2-hydroxy-3-phenylpropionate]
5.8 mg/kg i.v./q4dx3
  #CR: 0/0/0
  #PR: 0/0/0
  #TFS: 0/0/0
  Drug Deaths Total: 0
  Weight Change at Nadir %: −5%
  Weight Change at Nadir Day: 11 days
  Tumor Volume Data (Day 21) Median: 333 mm^3
  ΔT/ΔC %: 14.1%
  MTTE: 49 days
  T-C: 24 days
5.8 mg/kg q4d×3 IV
  ΔT/ΔC: 14.1%
5.8 mg/kg, DAY 4
  tumor volume changes from baseline, Median +/− nMAD: 47 +/− 47
5.8 mg/kg, DAY 7
  tumor volume changes from baseline, Median +/− nMAD: 121 +/− 80
5.8 mg/kg, DAY 11
  tumor volume changes from baseline, Median +/− nMAD: 162 +/− 89
5.8 mg/kg, DAY 14
  tumor volume changes from baseline, Median +/− nMAD: 162 +/− 97
5.8 mg/kg, DAY 18
  tumor volume changes from baseline, Median +/− nMAD: 195 +/− 122
5.8 mg/kg, DAY 21
  tumor volume changes from baseline, Median +/− nMAD: 129 +/− 129
5.8 mg/kg, DAY 25
  tumor volume changes from baseline, Median +/− nMAD: 96 +/− 115
5.8 mg/kg, DAY 28
  tumor volume changes from baseline, Median +/− nMAD: 96 +/− 115
5.8 mg/kg, DAY 32
  tumor volume changes from baseline, Median +/− nMAD: 96 +/− 109
5.8 mg/kg, DAY 35
  tumor volume changes from baseline, Median +/− nMAD: 169 +/− 182
5.8 mg/kg, DAY 39
  tumor volume changes from baseline, Median +/− nMAD: 239 +/− 172.5
5.8 mg/kg, DAY 42
  tumor volume changes from baseline, Median +/− nMAD: 240 +/− 162
5.8 mg/kg, DAY 46
  tumor volume changes from baseline, Median +/− nMAD: 364.5 +/− 226
5.8 mg/kg, DAY 49
  tumor volume changes from baseline, Median +/− nMAD: 402 +/− 254
5.8 mg/kg, DAY 53
  tumor volume changes from baseline, Median +/− nMAD: 706 +/− 516
5.8 mg/kg, DAY 56
  tumor volume changes from baseline, Median +/− nMAD: 878 +/− 602.5
9.3 mg/kg i.v./q4dx3
  #CR: 0
  #PR: 2
  #TFS: 0
  Drug Deaths Total: 0
  Weight Change at Nadir %: −8%
  Weight Change at Nadir Day: 11 days
  Tumor Volume Data (Day 21) Median: 131 mm^3
  ΔT/ΔC %: 0%
  MTTE: >60 days
  T-C: >35 days
9.3 mg/kg q4d×3 IV
  numbers of PR: 2/9
  ΔT/ΔC: 0%
9.3 mg/kg, DAY 4
  tumor volume changes from baseline, Median +/− nMAD: 54 +/− 54
9.3 mg/kg, DAY 7
  tumor volume changes from baseline, Median +/− nMAD: 73 +/− 73
9.3 mg/kg, DAY 11
  tumor volume changes from baseline, Median +/− nMAD: 19 +/− 35
9.3 mg/kg, DAY 14
  tumor volume changes from baseline, Median +/− nMAD: 19 +/− 35
9.3 mg/kg, DAY 18
  tumor volume changes from baseline, Median +/− nMAD: 0 +/− 33
9.3 mg/kg, DAY 21
  tumor volume changes from baseline, Median +/− nMAD: 0 +/− 34
9.3 mg/kg, DAY 25
  tumor volume changes from baseline, Median +/− nMAD: −19 +/− 26
9.3 mg/kg, DAY 28
  tumor volume changes from baseline, Median +/− nMAD: −45 +/− 26
9.3 mg/kg, DAY 32
  tumor volume changes from baseline, Median +/− nMAD: −45 +/− 26
9.3 mg/kg, DAY 35
  tumor volume changes from baseline, Median +/− nMAD: −66 +/− 7
9.3 mg/kg, DAY 39
  tumor volume changes from baseline, Median +/− nMAD: −66 +/− 7
9.3 mg/kg, DAY 42
  tumor volume changes from baseline, Median +/− nMAD: −66 +/− 7
9.3 mg/kg, DAY 46
  tumor volume changes from baseline, Median +/− nMAD: −66 +/− 7
9.3 mg/kg, DAY 49
  tumor volume changes from baseline, Median +/− nMAD: −66 +/− 7
9.3 mg/kg, DAY 53
  tumor volume changes from baseline, Median +/− nMAD: −47 +/− 25
9.3 mg/kg, DAY 56
  tumor volume changes from baseline, Median +/− nMAD: −47 +/− 26
15 mg/kg i.v./q4dx3
  #CR: 0
  #PR: 6
  #TFS: 0
  Drug Deaths Total: 0
  Weight Change at Nadir %: −9%
  Weight Change at Nadir Day: 11 days
  Tumor Volume Data (Day 21) Median: 78 mm^3
  ΔT/ΔC %: −9.3%
  MTTE: >60 days
  T-C: >35 days
15 mg/kg, DAY 4
  tumor volume changes from baseline, Median +/− nMAD: 0 +/− 0 (n = 9)
15 mg/kg, DAY 7
  tumor volume changes from baseline, Median +/− nMAD: 0 +/− 25
15 mg/kg, DAY 11
  tumor volume changes from baseline, Median +/− nMAD: −53 +/− 19
15 mg/kg, DAY 14
  tumor volume changes from baseline, Median +/− nMAD: −53 +/− 27
15 mg/kg, DAY 18
  tumor volume changes from baseline, Median +/− nMAD: −73 +/− 20
15 mg/kg, DAY 21
  tumor volume changes from baseline, Median +/− nMAD: −85 +/− 13
15 mg/kg, DAY 25
  tumor volume changes from baseline, Median +/− nMAD: −85 +/− 13
15 mg/kg, DAY 28
  tumor volume changes from baseline, Median +/− nMAD: −85 +/− 13
15 mg/kg, DAY 32
  tumor volume changes from baseline, Median +/− nMAD: −85 +/− 19
15 mg/kg, DAY 35
  tumor volume changes from baseline, Median +/− nMAD: −85 +/− 19
15 mg/kg, DAY 39
  tumor volume changes from baseline, Median +/− nMAD: −85 +/− 38
15 mg/kg, DAY 42
  tumor volume changes from baseline, Median +/− nMAD: −85 +/− 38
15 mg/kg, DAY 46
  tumor volume changes from baseline, Median +/− nMAD: −85 +/− 38
15 mg/kg, DAY 49
  tumor volume changes from baseline, Median +/− nMAD: −85 +/− 38
15 mg/kg, DAY 53
  tumor volume changes from baseline, Median +/− nMAD: −85 +/− 38
15 mg/kg, DAY 56
  tumor volume changes from baseline, Median +/− nMAD: −85 +/− 38
24.2 mg/kg i.v./q4dx3
  #CR: 1
  #PR: 5
  #TFS: 1
  Drug Deaths Total: 0
  Weight Change at Nadir %: −15%
  Weight Change at Nadir Day: 14 days
  Tumor Volume Data (Day 21) Median: 101.5 mm^3
  ΔT/ΔC %: −6.9%
  MTTE: >60 days
  T-C: >35 days
24.2 mg/kg, DAY 4
  tumor volume changes from baseline, Median +/− nMAD: 22 +/− 22
24.2 mg/kg, DAY 7
  tumor volume changes from baseline, Median +/− nMAD: 0 +/− 9.5
24.2 mg/kg, DAY 11
  tumor volume changes from baseline, Median +/− nMAD: −26.5
24.2 mg/kg, DAY 14
  tumor volume changes from baseline, Median +/− nMAD: −29.5
24.2 mg/kg, DAY 18
  tumor volume changes from baseline, Median +/− nMAD: −61.5 +/− 27
24.2 mg/kg, DAY 21
  tumor volume changes from baseline, Median +/− nMAD: −63 +/− 25.5
24.2 mg/kg, DAY 25
  tumor volume changes from baseline, Median +/− nMAD: −69.5
24.2 mg/kg, DAY 28
  tumor volume changes from baseline, Median +/− nMAD: −60 +/− 28.5
24.2 mg/kg, DAY 32
  tumor volume changes from baseline, Median +/− nMAD: −60 +/− 28.5
24.2 mg/kg, DAY 35
  tumor volume changes from baseline, Median +/− nMAD: −60 +/− 35
24.2 mg/kg, DAY 39
  tumor volume changes from baseline, Median +/− nMAD: −60 +/− 35
24.2 mg/kg, DAY 42
  tumor volume changes from baseline, Median +/− nMAD: −71 +/− 46.5
24.2 mg/kg, DAY 46
  tumor volume changes from baseline, Median +/− nMAD: −71 +/− 46.5
24.2 mg/kg, DAY 49
  tumor volume changes from baseline, Median +/− nMAD: −71 +/− 43
24.2 mg/kg, DAY 53
  tumor volume changes from baseline, Median +/− nMAD: −64.5 +/− 45.5
24.2 mg/kg, DAY 56
  tumor volume changes from baseline, Median +/− nMAD: −64.5 +/− 46.5
Conclusion of example 4, dose equivalent basis
  antitumor activity compared with docetaxel: more efficacious than docetaxel at both mid doses
